Assay results reported in ChEMBL document CHEMBL1121757, “Alpha-adrenergic agents. 1. Direct-acting alpha 1 agonists related to methoxamine” (J Med Chem, 1981).

Assays:
[1] = biological target: T1, Alpha-1A adrenergic receptor (Homo sapiens, UniProt P35348); assay: Alpha-1 adrenergic receptor agonist activity in rabbit ear artery; format: functional, tissue-based, Oryctolagus cuniculus; settings: target entry is the homologue from another species
T1 sequence (P35348 whole entry): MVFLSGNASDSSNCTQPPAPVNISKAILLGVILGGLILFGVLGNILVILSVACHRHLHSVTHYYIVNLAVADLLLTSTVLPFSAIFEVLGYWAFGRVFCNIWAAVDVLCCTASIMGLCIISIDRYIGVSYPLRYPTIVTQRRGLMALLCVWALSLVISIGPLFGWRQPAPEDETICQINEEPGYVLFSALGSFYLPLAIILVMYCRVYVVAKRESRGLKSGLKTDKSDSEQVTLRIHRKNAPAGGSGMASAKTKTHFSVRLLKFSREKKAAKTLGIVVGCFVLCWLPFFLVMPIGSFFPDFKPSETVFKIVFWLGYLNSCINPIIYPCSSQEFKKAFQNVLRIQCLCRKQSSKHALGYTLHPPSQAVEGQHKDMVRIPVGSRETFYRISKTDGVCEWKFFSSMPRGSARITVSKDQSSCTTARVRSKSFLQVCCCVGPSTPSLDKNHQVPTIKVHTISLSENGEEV

Oryctolagus cuniculus = organism: Oryctolagus cuniculus; assay: Phentolamine dissociation constant was evaluated in rabbit ear artery; format: functional

SMILES | EC50 [1] | Kb (Oryctolagus cuniculus)
COc1ccc(OC)c2c1CC1C2[C@@H]1N (some centres undefined) | 0.34 µM | 0.0084 µM
COc1ccc(OC)c2c1CC[C@H]1NCCCC21 (some centres undefined) | 0.17 µM | 0.011 µM
COc1ccc(OC)c2c1C1CCC2[C@@H](N)C1 (some centres undefined) | 30 µM | –
COc1ccc(OC)c2c1CCNC2 | > 30 µM | –
NC1CCc2ccccc2C1 (centres undefined) | > 30 µM | –
COc1ccc(OC)c(C(O)C(C)N)c1 (centres undefined) [METHOXAMINE] | 0.72 µM | 0.0098 µM
COc1ccc(OC)c2c1CC(N)C2 | 30 µM | –
COc1ccc(OC)c2c1CCC(N)C2 (centres undefined) | 0.12 µM | 0.006 µM
COc1ccc(OC)c(CCN)c1 | 11 µM | 0.054 µM
COc1ccc(OC)c2c1C1CCC2[C@H](N)C1 (some centres undefined) | 30 µM | –
COc1ccc(OC)c2c1CC[C@@H]1NCCCC21 (some centres undefined) | 0.2 µM | 0.0147 µM
COc1ccc(OC)c2c1CCCC(N)C2 (centres undefined) | 5.3 µM | 0.011 µM
